# Laboratory results as given in article PMC9569450, “Dual Effect of Tryptamine on Prostate Cancer Cell Growth Regulation: A Pilot Study” (International Journal of Molecular Sciences, 2022).
# Assays:
# Format in all cases: cell-based
# LNCaP cells = test: MTT cell proliferation assay, LNCaP; conditions: Homo sapiens, LNCaP, 48 h treatment in FBS-free medium, read-out: IC50 Value (Mean ± SD mM) LNCaP
# Experimental: (§1) PC-3, LNCaP, RWPE-1, HepG2, A549, and PANC-1 cells were purchased from the National Collection of Authenticated Cell Cultures (Shanghai, China). […] All the above cell cultures were supplied with 10% fetal bovine serum and 1% penicillin-streptomycin. RWPE-1 cells were cultured in keratinocyte serum-free medium (K-SFM, Gibco, New York, NY, USA) supplemented with 50 mg/L bovine pituitary extract and 5 μg/L epidermal growth factor (EGF). All cell lines were grown in a humidified atmosphere of 5% CO2 at 37 °C.
# (§2) Cells were seeded in 100 μL complete medium in a 96-well plate, at a density of 10,000 cells/well for LNCaP and 5000 cells/well for other cells. Cells were pre-incubated for 24 h to allow for adherence before removal of complete medium and treatment with various concentrations of compounds in fetal bovine serum (FBS)-free medium for 48 h. After treatment, 20 μL/well MTT (5 mg/mL) was added and incubated for 3–4 h at 37 °C, and then 100 μL/well DMSO was added for MTT assay. The plate was shaken on an orbital shaker for 10 min. Absorbance was measured using a microplate reader at 492 nm for the MTT assay (performed in triplicates). Cell viability was normalized to control. Half inhibitory concentration (IC50) was calculated by SPSS Statistics 17.0. […] The experiments were independently repeated two to three times.
# RWPE-1 cells = test: MTT cell proliferation assay, RWPE-1; conditions: Homo sapiens, RWPE-1; MTT, 48 h treatment in FBS-free medium; read-out: IC50 Value (Mean ± SD mM) RWPE-1
# Experimental: as §1, §2
# [1] = test system: A549, HepG2, and PANC-1 cells; test: MTT cell proliferation assay, other three cancer cell lines; conditions: A549, HepG2, and PANC-1, text summary
# Experimental: as §1, §2
compound,measurement,setting,value
NCCc1c[nH]c2ccccc12 [Tryptamine],IC50,LNCaP cells,0.037 ± 0.001 mM
same,IC50,RWPE-1 cells,0.71 ± 0.06 mM
same,IC50,[1],350 to 460 µM
